Reference: patent publication US20070099891A1, “Medicinal compositions and combinations” (priority 2003, published 2007)

Experiments:
HepG2 cell = test: LDL binding, uptake and degradation activity in cultured human hepatic cell line HepG2 ([125I]LDL); format: cell-based; conditions: for Binding Amounts / Degradation Amounts / Uptake Amounts: mean ± standard error, 6 experiments
Protocol: The cultured human hepatic cell line HepG2 cell was purchased from the Dainippon Pharmaceuticals Co. Ltd. (Osaka, Japan). The determinations of LDL binding, uptake and degradation activity were performed according to a prior report (Method in Enzymology, 98, 241-255, 1983). Cells were seeded in a 24 well plate and were incubated in the Dulbecco's modified Eagle/F-12 (DMEM/F-12) medium containing 10% fetal bovine serum and antibiotics at 37° C. for two days. After washing the cells, a DMEM/F-12 medium containing 10% lipoprotein-removed serum, the test substrate and the antibiotics was added and the cells were incubated at 37° C. for 19 hours. After adding [^125I]LDL, the cells were incubated at 37° C. for another 5 hours. The culture supernatant was collected and trichloroacetic acid was added thereto, and then it was statically kept for 30 minutes or more at 4° C. After centrifuging (700×g, 4° C., 15 min.), the supernatant was separated and sodium iodide was added thereto, and further hydrogen peroxide was added. After treating the mixture at room temperature for 5 min., chloroform was added and the mixture was stirred. After centrifuging (700×g, 4° C., 5 min.), the radioactivity in the supernatant was measured by a gamma counter, and then the data thus obtained was evaluated as an amount of degradation of LDL. Separately, after washing the cells thoroughly, a dissociation buffer (50 mM NaCl, 10 mM 2-[4-(2-hydroxyethyl)-1-piperadinyl]ethane sulfonic acid (HEPES, pH 7.4), 10 mg/mL heparin) was added and then the cells were statically kept at 4° C. for 60 min. or more. […] Furthermore, 1N sodium hydroxide was added to the remaining cells and the mixture was reacted for more than 10 min. to dissolve the cells. […] On the other hand, the amounts of non-specific degradation, binding and uptake were evaluated by coexisting an excess of non-labeled LDL on addition of [^125I] LDL, while the amounts of specific degradation, binding and uptake were obtained by subtracting the amounts of non-specific degradation, binding and uptake from the total amounts of degradation, binding and uptake and further calibrating with the amounts of protein.

LDL receptor protein = test: Expression of LDL receptor protein in liver of endogenous hyperlipemia rabbit (immunoblotting); format: in vivo; conditions: casein diet
Protocol: For the rabbit used in Example 2, liver was taken out after one day of a final administration of the agent. A homogenizing buffer (20 mM Tris-HCl (pH 8.0), 1 mM CaCl2, 150 mM NaCl, a mix of protease inhibitor) was added to a part of this liver and the mixture was homogenized and centrifuged at 8000×g, 4° C. for 10 min., thereafter the supernatant was ultracentrifuged at […], 4° C. for 60 min. The resulting precipitate was washed by adding the homogenizing buffer and centrifuging at 10,000×g, 4° C. for 30 min., and thereafter was suspended in a suspension buffer (125 mM Tris-maleate (pH 6.8), 1 mM CaCl2, 160 mM NaCl, 1% (w/v) Triton X-100, Protease inhibitor (Complete™, Boehringer Ingelhaim Co., Ltd., Ingelheim, Germany)) to prepare a fraction of the liver membrane. After mixing with a buffer (125 mM Tris-HCl (pH 6.8), 20% (v/v) glycerol, 4% (w/v) sodium dodecyl sulfate (hereinafter, referred to as SDS) and 0.001% (w/v) bromophenol blue), the fraction was subjected to SDS polyacrylamide electrophoresis (using a 7.5% polyacrylamide gel), and the resultant was transferred to a polyvinylidene difluoride (PVDF) membrane and then the amount of LDL receptor protein was evaluated by an immunoblotting using anti-LDL receptor antibody. […]

[1] = system: rabbit with endogenous hyperlipemia caused by a casein diet load; test: Blood cholesterol lowering action in endogenous hyperlipemia rabbit (casein diet); format: in vivo, New Zealand White rabbit
Protocol: 8 weeks old male New Zealand White rabbit were bred for 12 days with ad libitum water and feeding conditions (rabbit·guinea pig breeding feed RC4, Oriental Yeast Co., Ltd., Tokyo, Japan). Thereafter, the diet was replaced with the casein diet containing 27% casein (Oriental Yeast Co., Ltd., Tokyo, Japan), and then the restricted feeding to the 100 g per 3 kg weight was performed for one week. At this point, the blood was collected via auricular veins and the plasma total cholesterol amounts was measured and then these rabbits were divided such that the mean of the weight and the plasma total cholesterol were equal approximately. […] Each agent was dissolved in propylene glycol containing 0.5% polyoxyethylenesorbitan monooleate (Tween 80) and then these were administered orally. On the other hand, for control group, the solvent (propylene glycol comprising 0.5% Tween 80) was administered orally. At one day after final administration, the blood was collected and plasma total cholesterol was measured and also the lipoprotein was fractioned according to the differential ultracentrifugation method (Nobuhiro, Yamada, Yasushi Sato edit.: Study strategy of Arteriosclerotic+Hyperlipemia, 63-69, 1996, Shujunsha Co. Ltd.), and then the amounts of cholesterol in the fraction of LDL were measured. The amount of total cholesterol in plasma and the amount of cholesterol in LDL fraction were determined by using an automatic biochemical analyzer (Biochemical Analyzer CHEM 1, Bayer Corporation, NY, USA).

[2] = single agent; not reduced more even if the dosage is increased; cited from earlier work
[3] = 1 mg/kg orally for 3 weeks, mean ± standard error

SMILES | Binding Amounts (HepG2 cell; single agent 0.1 μM) [ng/mg protein] | Degradation Amounts (HepG2 cell; single agent 0.1 μM) [ng/mg protein] | Binding Amounts (HepG2 cell; single agent 1 μM) [ng/mg protein] | Degradation Amounts (HepG2 cell; single agent 1 μM) [ng/mg protein] | Binding Amounts (HepG2 cell; single agent 10 μM) [ng/mg protein] | Degradation Amounts (HepG2 cell; single agent 10 μM) [ng/mg protein] | amount of the expression of LDL receptor protein in liver (in words, FIG. 1) (LDL receptor protein; atorvastatin 1 and 3 mg/kg) | amounts of binding, uptake and degradation of LDL (in words) (HepG2 cell; compound A 0.01 to 1 μM) | Binding Amounts (HepG2 cell; single agent 0.01 μM) [ng/mg protein] | Degradation Amounts (HepG2 cell; single agent 0.01 μM) [ng/mg protein] | Uptake Amounts (HepG2 cell; single agent 0.01 μM) [ng/mg protein] | Uptake Amounts (HepG2 cell; single agent 0.1 μM) [ng/mg protein] | Uptake Amounts (HepG2 cell; single agent 1 μM) [ng/mg protein] | plasma LDL cholesterol [1, 3] [mg/dL] | plasma total cholesterol [1, 3] [mg/dL] | plasma total cholesterol lowering action and plasma LDL cholesterol lowering action (in words) ([1]; 1 mg/kg, compared to control) | amount of the expression of LDL receptor protein in liver (in words, FIG. 1) (LDL receptor protein; compound A 1 mg/kg) | degree of lowering of LDL cholesterol [2] [%]
CC(C)c1c(C(=O)Nc2ccccc2)c(-c2ccccc2)c(-c2ccc(F)cc2)n1CC[C@@H](O)C[C@@H](O)CC(=O)O [Atorvastatin, atorvastatin, reference compound] | 81.7 ± 2.1 | 800.9 ± 32.5 | 86.3 ± 2.7 | 1000.5 ± 62.9 | 95.5 ± 4.0 | 1062.3 ± 66.0 | increased |  |  |  |  |  |  |  |  |  |  | 
CCCCn1c(=O)c(NC(=O)Nc2c(C(C)C)cc(N)cc2C(C)C)c(-c2cccc(OCCCO)c2)c2cccnc21 [Compd. A, N-[1-butyl-4-[3-[3-(hydroxy)propoxy]phenyl]-1,2-dihydro-2-oxo-1,8-naphthyridine-3-yl]-N′-(2,6-diisopropyl-4-aminophenyl)urea] | 90.9 ± 4.1 | 1016.8 ± 45.3 | 93.7 ± 2.5 | 1126.3 ± 70.3 |  |  |  | increased | 85.2 ± 3.6 | 927.5 ± 90.0 | 852.9 ± 47.3 | 886.4 ± 29.2 | 1172.2 ± 46.2 | 52 ± 9 | 108 ± 5 | significant effects | increased | 
O=C1[C@H](CC[C@H](O)c2ccc(F)cc2)[C@@H](c2ccc(O)cc2)N1c1ccc(F)cc1 [ezetimibe, 1-(4-fluorophenyl)-3(R)-[3-(4-fluorophenyl)-3(S)-hydroxypropyl]-4(S)-(4-hydroxyphenyl)-2-azetidinone] |  |  |  |  |  |  |  |  |  |  |  |  |  |  |  |  |  | 15 to 20
